According to patent publication US20200239398A1, “METHYLENE-CYCLOALKYLACETATE DERIVATIVES AND THEIR USE IN TREATMENT OF NEUROTROPIC CONDITIONS” (Yissum Research Development Company of The Hebrew …, priority 2018, published 2020):

Experiments:
[1] = test system: PC12 cells; assay: PC12 cell neurotropic assay (neurite outgrowth); type: cell-based, rat; details: 10 μM; for Neurotropic effect (mean ± SE) Seven Days Df / Neurotropic effect (mean ± SE) Two Days Df: PC12 cells, Df = fractal dimension of neurite outgrowth; for Neurotropic effect (mean ± SE) Seven Days Df: seven days of treatment; for Neurotropic effect Seven Days NGF (%) / Neurotropic effect Two Days NGF (%): relative to NGF 50 ng/ml; for Neurotropic effect (mean ± SE) Two Days Df: two days of treatment; for inducing fast neurite outgrowth (in words): after two days of treatment
Description: PC12 cells were grown in T-200 flasks in high glucose (4.5 gr/L) DMEM medium supplemented with 7% FCS, 7% horse serum and 1% penicillin and streptomycin. Cells were incubated at 37° C. in a humidified incubator containing 6% CO2. All experiments were carried out in a clean room, according to ISO7 requirements (10,000 particles/m^3).
Tissue culture Falcon plates were coated with 200 μg/ml collagen type 1 and placed under UV light for 30 minutes for sterilization. Thereafter, one ml of PC12 cell suspension (5000 cells/well) was applied in 12 or 24 well plate, respectively. The cultures were grown in the incubator two days before exposure to investigated compound.
This experimental procedure contained two controls. The first consisted of untreated cells (negative control), representing the random effect: “noise signal”—the ability of cells to spontaneously grow neurite outgrowth which in seven days are of a length less than two-fold cell diameter. Also, negative controls consisted of cultures treated with 1% DMSO, solvent used to solubilize all compounds. The positive control consisted of cells treated with 50 ng/ml NGF, indicating maximal neurite outgrowth that can be achieved in this model. The experimental group consisted of PC12 cells treated with synthetic compounds. In each experiment, after two and seven days, six cultures were evaluated for neurotropic effect. These consecutive observations allow measurement of the progress of neurite outgrowth elongation and the percentage of cells with neurites.^31
In order to assess neurotropic effect, the neurite outgrowth length in each culture was quantified. For this purpose, each culture was placed under an inverted microscope and photographed by the attached camera. Each well was photographed at three to five representative areas. After acquiring the photos, they were analyzed by ImageJ, NIH software. The neurite outgrowth was estimated by fractal dimension (Df), a statistical parameter that describes the fractional space (area and length) filled by neurite outgrowth. Df ranged from 0 to 1.20. This method estimates the amount of picsel covered by neurites/cells compared to empty space per square field, and therefore plotting log (number of square boxes) vs. log (size in pixels) relationship generates a linear curve with Df representing the slope of the curve. Every photograph that was taken, was opened in a Photoshop software and a new layer was generated on it. Using a 5-pixel wide digital pencil tool, all the outgrowths were marked and the layer with the markers (outgrowth network) was saved in a 0-255 gray scale as described in FIG. 2. Then, the saved layer was opened by ImageJ NIH software. The software “skeletonized” the layer, measured the length and complexity of every outgrowth in a fractal box count and calculated the fractional dimension parameter (Df).^32
Each experiment was performed in duplicates and repeated three to four times (n=6-8). By using SPSS software, one way ANOVA was performed for the fractional dimension of each compound, in order to evaluate the neurotropic effect. In case of significance, Bonferroni post-hoc analysis was performed. The results were considered significant when p<0.05.

[2] = biological target: T1, Nicotinic acetylcholine Receptor-alpha-4 beta-2 (nAChR (a4/b2)) (Homo sapiens, UniProt P17787+P43681); assay: cell-based; type: cell-based; details: Blocker mode; reference compound; read-out: RC50 (the source's name)
T1 construct: DiscoverX (SAFETYscan contract panel)
T1 sequence (P43681 29-627 limits assumed): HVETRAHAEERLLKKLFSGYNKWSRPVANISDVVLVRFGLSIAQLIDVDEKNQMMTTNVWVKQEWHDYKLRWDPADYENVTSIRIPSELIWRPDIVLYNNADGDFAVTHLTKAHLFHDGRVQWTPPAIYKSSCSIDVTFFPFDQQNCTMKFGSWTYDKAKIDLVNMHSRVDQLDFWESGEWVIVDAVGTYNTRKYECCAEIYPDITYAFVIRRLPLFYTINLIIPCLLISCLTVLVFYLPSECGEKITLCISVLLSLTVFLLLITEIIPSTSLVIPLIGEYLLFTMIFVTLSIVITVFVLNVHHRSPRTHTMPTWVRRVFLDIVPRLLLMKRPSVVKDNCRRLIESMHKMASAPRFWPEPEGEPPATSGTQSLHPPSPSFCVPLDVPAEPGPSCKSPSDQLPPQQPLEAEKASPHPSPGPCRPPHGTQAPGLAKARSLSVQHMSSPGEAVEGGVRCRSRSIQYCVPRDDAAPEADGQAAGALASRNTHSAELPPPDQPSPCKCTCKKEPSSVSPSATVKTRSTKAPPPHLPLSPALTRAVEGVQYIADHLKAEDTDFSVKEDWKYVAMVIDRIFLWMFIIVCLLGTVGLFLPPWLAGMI
T1 sequence (P17787 26-502): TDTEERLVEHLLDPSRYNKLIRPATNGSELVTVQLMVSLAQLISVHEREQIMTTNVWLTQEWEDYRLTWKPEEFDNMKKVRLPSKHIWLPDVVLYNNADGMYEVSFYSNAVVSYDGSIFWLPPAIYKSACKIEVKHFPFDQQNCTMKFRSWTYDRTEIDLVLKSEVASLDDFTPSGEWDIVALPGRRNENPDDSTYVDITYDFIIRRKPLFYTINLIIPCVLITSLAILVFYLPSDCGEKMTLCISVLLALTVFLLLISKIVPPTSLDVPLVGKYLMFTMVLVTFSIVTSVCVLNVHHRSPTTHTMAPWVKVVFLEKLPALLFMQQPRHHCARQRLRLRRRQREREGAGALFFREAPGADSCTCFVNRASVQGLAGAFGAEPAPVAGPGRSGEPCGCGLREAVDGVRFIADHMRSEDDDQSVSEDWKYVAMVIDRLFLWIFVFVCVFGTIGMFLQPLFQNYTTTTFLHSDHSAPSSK

[3] = test system: PC12 cells; assay: Cytotoxicity (cell morphology, LDH release); type: cell-based; details: 10 μM
[4] = biological target: T2, N-methyl-D-aspartate (NMDA) Glutamate Receptor 1A/2B (NMDAR (1A/2B)) (Homo sapiens, UniProt Q05586+Q13224); assay: SAFETYscan NMDAR (1A/2B) Ion channel; type: cell-based; details: Blocker mode; reference compound; read-out: RC50 (the source's name)
T2 construct: DiscoverX (SAFETYscan contract panel)
T2 sequence (Q13224 27-1484, other chains not shown): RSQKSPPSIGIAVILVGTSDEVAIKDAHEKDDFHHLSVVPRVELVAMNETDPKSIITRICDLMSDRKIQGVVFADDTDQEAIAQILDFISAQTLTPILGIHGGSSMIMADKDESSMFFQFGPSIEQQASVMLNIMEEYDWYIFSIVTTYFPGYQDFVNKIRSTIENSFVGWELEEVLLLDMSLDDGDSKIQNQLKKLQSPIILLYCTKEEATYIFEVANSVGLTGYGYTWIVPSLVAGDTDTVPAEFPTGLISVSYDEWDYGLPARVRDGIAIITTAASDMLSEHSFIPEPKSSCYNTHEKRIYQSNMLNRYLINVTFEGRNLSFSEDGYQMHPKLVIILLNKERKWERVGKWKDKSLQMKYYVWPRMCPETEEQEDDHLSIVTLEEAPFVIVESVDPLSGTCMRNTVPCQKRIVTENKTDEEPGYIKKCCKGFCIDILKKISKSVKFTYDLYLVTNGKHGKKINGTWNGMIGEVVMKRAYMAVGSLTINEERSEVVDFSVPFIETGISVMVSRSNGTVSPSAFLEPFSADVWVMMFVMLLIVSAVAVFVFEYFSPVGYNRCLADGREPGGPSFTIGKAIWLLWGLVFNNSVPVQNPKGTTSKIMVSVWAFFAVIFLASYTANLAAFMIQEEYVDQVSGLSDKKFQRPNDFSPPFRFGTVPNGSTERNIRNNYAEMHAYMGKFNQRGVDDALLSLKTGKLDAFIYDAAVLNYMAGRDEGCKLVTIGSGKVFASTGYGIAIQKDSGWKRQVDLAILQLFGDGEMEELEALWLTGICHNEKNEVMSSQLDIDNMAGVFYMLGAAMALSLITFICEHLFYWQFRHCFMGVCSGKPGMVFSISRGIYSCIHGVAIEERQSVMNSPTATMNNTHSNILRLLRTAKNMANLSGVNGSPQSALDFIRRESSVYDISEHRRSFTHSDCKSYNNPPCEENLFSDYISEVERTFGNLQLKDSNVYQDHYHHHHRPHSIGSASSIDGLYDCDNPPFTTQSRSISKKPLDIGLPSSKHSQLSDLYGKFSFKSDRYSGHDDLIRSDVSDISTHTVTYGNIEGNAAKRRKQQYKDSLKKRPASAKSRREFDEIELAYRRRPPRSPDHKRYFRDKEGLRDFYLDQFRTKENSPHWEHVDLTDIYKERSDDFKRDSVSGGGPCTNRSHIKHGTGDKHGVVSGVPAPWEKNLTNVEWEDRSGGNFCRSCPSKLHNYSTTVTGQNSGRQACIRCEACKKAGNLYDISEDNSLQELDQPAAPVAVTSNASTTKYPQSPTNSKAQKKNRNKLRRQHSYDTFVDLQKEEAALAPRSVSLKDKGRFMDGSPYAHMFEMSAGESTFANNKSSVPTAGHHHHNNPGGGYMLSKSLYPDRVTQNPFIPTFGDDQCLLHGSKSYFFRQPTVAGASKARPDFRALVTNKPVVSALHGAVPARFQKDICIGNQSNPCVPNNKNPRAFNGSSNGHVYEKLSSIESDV

[5] = biological target: Gamma-aminobutyric acid Receptor A (GABAA); type: cell-based; details: Blocker mode; reference compound; read-out: RC50 (the source's name)
[6] = test system: PC12 cells; assay: Additive neurotropic effect between HU-MCA-13 and NGF, PC12 neurite outgrowth; type: cell-based, rat
Description: PC12 cells were cultured in T-200 flasks in high glucose (4.5 gr/L) DMEM medium supplemented with 7% FCS, 7% horse serum and 1% penicillin and streptomycin. Cells will be maintained at 37° C. in a humidified incubator containing 6% CO2. All experiments were carried out in a GLP clean room, according to ISO 7 requirements (10,000 particles/m^3). For neurotropic experiments, tissue culture Falcon plates were coated with 200 μg/ml collagen type 1 and placed under UV light for 30 minutes for sterilization. Thereafter, one ml of PC12 cell suspension (5000 cells/well) was applied in 12 or 24 well plate, respectively. The cultures were maintained in the incubator two days before exposure to investigated compound. Each neurotropic experiment contained two controls. The first consisted of untreated cells (negative control), representing the random effect: “noise signal”—the ability of cells to spontaneously grow neurite outgrowth which in seven days are of a length less than two-fold cell diameter. Also, negative controls consisted of cultures treated with 1% DMSO, solvent used to solubilize HU-MCA-13. The positive controls represented neuronal cultures treated with 50 ng/ml NGF, indicating maximal neurite outgrowth that can be achieved in this model. The experimental group consisted of PC12 cells treated with 10 μM HU-MCA-13. In each experiment, after two and seven days, six cultures will be evaluated for neurotropic effect. These consecutive observations allow measurement of the progress of neurite outgrowth elongation and the percentage of cells with neurites (Katzir et al. A quantitative bioassay for nerve growth factor, using PC12 clones expressing different levels of trkA receptors. J Mol Neurosci. 2002; 18(3):251-64). In order to assess neurotropic effect, the neurite outgrowth length in each culture was quantified. For this purpose, each culture was placed under an inverted microscope and photographed by the attached camera. Each well was photographed at three to five representative areas. After acquiring the photos, they were analyzed by ImageJ, NIH software. The neurite outgrowth was estimated by fractal dimension (Df), a statistical parameter that describes the fractional space (area and length) filled by neurite outgrowth. Df ranged from 0 to 1.20. This method estimated the amount of picsels covered by neurites/cells compared to empty space per square field, and therefore plotting log(number of square boxes) vs. log(size in pixels) relationship generated a linear curve with Df representing the slope of the curve. Every photograph that was taken, was opened in a Photoshop software and a new layer was generated on it. Using a 5-pixel wide digital pencil tool, all the outgrowths were marked and the layer with the markers (outgrowth network) were saved in a 0-255 gray scale. Thereafter, the saved layer was opened by ImageJ NIH software.
Using an established PC12 neurotropic in vitro assay, the regenerative enhancing effect of HU-MCA-13 when applied concomitantly, together with NGF, a known neurotrophin was investigated. […] NGF alone, as positive control, at the conventional dose of 50 ng/ml enhanced neurite outgrowth to a Df value of 0.54 at 2 days and 0.4 at 7 days of treatment (FIG. 5). To verify a possible additive effect, the cultures with a mixture of low dose NGF (1 ng/ml generating 10% neurite outgrowth=Df of 0.05) and 1 μM HU-MCA-13 generating about 10-15% neurite outgrowth=Df of 0.04) were tested and found after 2 days a Df of 0.85 and after 7 days a Df of 0.38. NGF is released by hematopoietic cells during polyneuropathy inflammatory process, this finding further strength the possibility of a potential enhancement regenerative effect of this drug upon in vivo therapy.

[7] = test system: dorsal root ganglion (DRG) sensory neurons; assay: Neurite outgrowth in dorsal root ganglion (DRG) explants; type: cell-based, mice
Description: To perform these experiments, about 10 dorsal root ganglia (DRGs) were excised under sterile conditions and transferred to 0.25% Type IV collagenase (Sigma-Aldrich-Merck) in Dulbecco's Modified Eagle Medium (DMEM) at 37° C. for 45 min, followed by a 20-min incubation with 0.025% trypsin in DMEM, to digest the associated connective tissue surrounding the neurons. After plating the ganglia onto collagen (50 μg/ml)/laminin mixture (5 μg/ml)-coated tissue culture wells for 24 h, DRG neurons were cultured for additional 1-7 days in fresh Neurobasal A/B27 containing either 50 ng/ml NGF (positive control), blank medium (DMSO 1%) control and HU-MCA-13. The cultures were photographed; thereafter the ganglia were immune-stained for neuronal tubulin and again photographed using a fluorescent microscope. Image analysis was performed by a researcher blinded to the experimental conditions. Neurite outgrowth distance measured in micrometers, was quantified as for PC12 cultures.

[8] = NGF 50 ng/ml, DRG explants, 5 days

Which results are given for `C=CCC1CC(C(C)(C)C)C[C@@H](CC(=O)O)C1=C` (some centres unmarked) [Compound 12]?
Neurotropic effect (mean ± SE) Seven Days Df [1]: 0.17 ± 0.16; Neurotropic effect Seven Days NGF (%) [1]: 37.0%; neurotropic activity (in words) ([1]; after seven days of treatment): significant neurotropic activity

With “Dihydro-AY-erythroidine [reference compound]” as the molecule, how does the IC50 [2] read?
Its IC50 is 707 nM.

For `C=C(C)CC1CCCC(CC(=O)OC)C1=O` (centres unmarked) [Compound 18, Methyl 2-(3-(2-methylallyl)-2-oxocyclohexyl)acetate], which “cytotoxicity (in words)” value [3] is on record?
Its value is “partial cytotoxic activity”.

How did the IC50 [4] turn out when `C[C@]12N[C@H](Cc3ccccc31)c1ccccc12` [MK 801, reference compound] was run?
Its IC50 is 52.8 nM.

Which results are given for `C=C1C(CC=C(C)C)CCCC1CC(=O)OC` (centres unmarked) [Compound 7, Methyl 2-(3-(3-methylbut-2-en-1-yl)-2-methylenecyclohexyl)acetate]?
Neurotropic effect (mean ± SE) Seven Days Df [1]: 0.20 ± 0.17; Neurotropic effect (mean ± SE) Two Days Df [1]: 0.12 ± 0.14; Neurotropic effect Seven Days NGF (%) [1]: 43.5%; Neurotropic effect Two Days NGF (%) [1]: 26.1%; neurotropic activity (in words) ([1]; after seven days of treatment): significant neurotropic activity; inducing fast neurite outgrowth (in words) [1]: most active

How did the IC50 [5] turn out when Picrotoxin [reference compound] was run?
The IC50 was 5920 nM.

How did the “cytotoxicity (in words)” value [3] turn out when `C=CCC1CN(C(=O)OCC)CC(CC(=O)OC)C1=C` (centres unmarked) [Compound 15, Ethyl-3-allyl-5-(2-methoxy-2-oxoethyl)-4-methylenepiperidine-1-carboxylate] was run?
Its value is “partial cytotoxic activity”.

Which “Neurotropic effect (mean ± SE) Seven Days Df” value [1] does the source give for `COC(=O)CC1CCCC(CC=C(C)C)C1=O` (centres unmarked) [Compound 21, Methyl 2-(3-(3-methylbut-2-en-1-yl)-2-oxocyclohexyl)acetate] here?
Its value is 0.01 ± 0.01.

What about the “Neurotropic effect Seven Days NGF (%)” value [1] of the same molecule?
Its value is 2.2%.

`C=CCC1CC(c2ccccc2)C[C@@H](CC(=O)O)C1=C` (some centres unmarked) [Compound 10] was tested. Which “neurotropic activity (in words)” value ([1]; PC12 cell neurotropic assay) did it give?
The value was “no activity was detected”.

Which results are given for `C=CCC1CC(=C)C[C@@H](CC(=O)O)C1=C` (some centres unmarked) [Compound 9]?
Neurotropic effect (mean ± SE) Seven Days Df [1]: 0.01 ± 0.01; Neurotropic effect Seven Days NGF (%) [1]: 2.2%; neurotropic activity (in words) ([1]; PC12 cell neurotropic assay): no activity was detected

For `C=C(C)CC1CCCC(CC(=O)OC)C1=C` (centres unmarked) [Compound 5, Methyl 2-(3-(2-methylallyl)-2-methylenecyclohexyl)acetate], which “loss of activity from day two to seven” value [1] is on record?
Its value is 50%.

What about the “Neurotropic effect (mean ± SE) Seven Days Df” value [1] of the same molecule?
Its value is 0.20 ± 0.17.

What about the “Neurotropic effect (mean ± SE) Two Days Df” value [1] of the same molecule?
The value was 0.42 ± 0.01.

And the “Neurotropic effect Seven Days NGF (%)” value [1]?
Its value is 43.5%.

What about the “Neurotropic effect Two Days NGF (%)” value [1] of the same molecule?
Its value is 91.3%.

What about the “neurotropic activity (in words)” value ([1]; after seven days of treatment) of the same molecule?
Its value is “significant neurotropic activity”.

And the “inducing fast neurite outgrowth (in words)” value [1]?
Its value is “most active”.

`C=C1C(CC=C(C)C)CCC[C@H]1CC(=O)O` (some centres unmarked) [Compound 6] was tested. Which “Neurotropic effect (mean ± SE) Seven Days Df” value [1] did it give?
The value was 0.20 ± 0.17.

And the “Neurotropic effect (mean ± SE) Two Days Df” value [1]?
Its value is 0.14 ± 0.15.

And the “Neurotropic effect Seven Days NGF (%)” value [1]?
The value was 43.5%.

What about the “Neurotropic effect Two Days NGF (%)” value [1] of the same molecule?
The value was 30.4%.

And the “neurotropic activity (in words)” value ([1]; after seven days of treatment)?
Its value is “significant neurotropic activity”.

And the “inducing fast neurite outgrowth (in words)” value [1]?
The value was “most active”.

Which “cytotoxicity (in words)” value [3] does the source give for `C=C1C(C/C=C/c2ccccc2)CCC[C@H]1CC(=O)O` (some centres unmarked) [Compound 8] here?
Its value is “partial cytotoxic activity”.

For `C=CCC1CC(c2ccccc2)CC(CC(=O)OC)C1=C` (centres unmarked) [Compound 11, Methyl 2-(3-allyl-2-methylene-5-phenylcyclohexyl)acetate], which “Neurotropic effect (mean ± SE) Seven Days Df” value [1] is on record?
Its value is 0.01 ± 0.01.

And the “Neurotropic effect Seven Days NGF (%)” value [1]?
The value was 2.2%.

And the “neurotropic activity (in words)” value ([1]; PC12 cell neurotropic assay)?
The value was “no activity was detected”.

B1: NGF: Tissue culture grade mouse β-NGF from Alomone Labs; positive control (protein, UniProt P01139 122-241, looked up)
Beta-nerve growth factor: SSTHPVFHMGEFSVCDSVSVWVGDKTTATDIKGKEVTVLAEVNINNSVFRQYFFETKCRASNPVESGCRGIDSKHWNSYCTTTHTFVKALTTDEKQAAWRFIRIDTACVCVLSRKATRRG
modifications: Beta-nerve growth factor
notes: Tissue culture grade mouse β-NGF from Alomone Labs; positive control
How did the “neurite outgrowth Df” value ([6]; NGF alone 50 ng/ml, 2 days) turn out when B1 was run?
Its value is 0.54.

And the “neurite outgrowth Df” value ([6]; NGF alone 50 ng/ml, 7 days)?
The value was 0.4.

What about the neurite outgrowth ([6]; low dose NGF 1 ng/ml) of the same molecule?
The neurite outgrowth was 10%.

What about the “neurite outgrowth Df” value ([6]; low dose NGF 1 ng/ml) of the same molecule?
Its value is 0.05.

What about the “increase in neurite outgrowth” value ([7]; NGF 50 ng/ml vs blank control medium) of the same molecule?
Its value is 3-4 fold.

And the neurite outgrowth length [7, 8]?
The neurite outgrowth length was 700 micrometer.

And the “ratio between the area covered by neurites and that covered by the DRG ganglia” value [7, 8]?
The value was 9.
